Three molecules from patent publication US7846945B2, “Piperdine-based inhibitors of sodium glucose co-transporter 2 and methods of their use” (Lexicon Pharmaceuticals, Inc., priority 2007, dated 2010) can be followed below.

The test concerns the target T1, Human sodium/glucose co-transporter type 2 (SGLT2) (Homo sapiens, UniProt P31639).
T1 construct: HA; expressed in transfected cells
T1 sequence (P31639 1-672): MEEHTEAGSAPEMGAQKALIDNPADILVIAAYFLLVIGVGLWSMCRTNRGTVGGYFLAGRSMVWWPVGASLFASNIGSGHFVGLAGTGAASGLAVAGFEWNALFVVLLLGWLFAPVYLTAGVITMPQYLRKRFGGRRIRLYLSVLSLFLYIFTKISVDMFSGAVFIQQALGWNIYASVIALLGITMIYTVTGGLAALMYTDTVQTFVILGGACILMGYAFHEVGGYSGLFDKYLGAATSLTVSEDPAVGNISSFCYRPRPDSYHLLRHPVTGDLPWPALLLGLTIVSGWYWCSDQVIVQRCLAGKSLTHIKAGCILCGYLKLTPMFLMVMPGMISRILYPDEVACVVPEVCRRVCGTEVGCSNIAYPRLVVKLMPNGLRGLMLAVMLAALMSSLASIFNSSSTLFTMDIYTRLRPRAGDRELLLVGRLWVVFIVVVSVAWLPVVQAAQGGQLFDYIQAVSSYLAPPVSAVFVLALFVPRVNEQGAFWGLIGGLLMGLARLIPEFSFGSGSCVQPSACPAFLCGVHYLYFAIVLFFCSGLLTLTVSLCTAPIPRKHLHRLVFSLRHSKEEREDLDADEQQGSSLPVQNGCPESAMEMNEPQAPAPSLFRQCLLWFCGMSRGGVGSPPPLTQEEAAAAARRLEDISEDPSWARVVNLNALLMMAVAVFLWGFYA
In words: In vitro human SGLT2 inhibition assay (14C-AMG uptake). The class given is cell-based. Conditions: HEK293 cells expressing human HA-SGLT2; potent = SGLT2 IC50 of less than about 500 nM; read-out: SGLT2 IC50 (potent SGLT2 inhibitor mark). On the procedure:
HEK293 cells were transfected with the human HA-SGLT2-pIRESpuro2 vector and the bulk stable cell line was selected in presence of 0.5 μg/ml of puromycin. Human HA-SGLT2 cells were maintained in DMEM media containing 10% FBS, 1% GPS and 0.5 μg/ml of puromycin.
The HEK293 cells expressing the human HA-SGLT2 were seeded in 384 well plates (30,000 cells/well) in DMEM media containing 10% FBS, 1% GPS and 0.5 μg/ml of puromycin, then incubated overnight at 37 C, 5% CO2. Cells were then washed with uptake buffer (140 mM NaCl, 2 mM KCl, 1 mM CaCl2, 1 mM MgCl2, 10 mM HEPES, 5 mM Tris, 1 mg/ml bovine serum albumin (BSA), pH 7.3). Twenty microliters of uptake buffer with or without testing compounds were added to the cells. Then, 20 microliters of uptake buffer containing ^14C-AMG (100 nCi) were added to the cells. The cell plates were incubated at 37° C., 5% CO2 for 1-2 hours. After washing the cells with uptake buffer, scintillation fluid was added (40 microliters/well) and ^14C-AMG uptake was measured by counting radioactivity using a scintillation coulter (TopCoulter NXT; Packard Instruments).
The IC50 of a compound with regard to a given target is determined by fitting the relevant data, using the Levenburg Marquardt algorithm, to the equation: y=A+((B−A)/(1+((C/x)^D))) wherein A is the minimum y value; B is the maximum y value; C is the IC50; and D is the slope.

What is called IC50 is the point on the concentration scale where inhibition reaches its midpoint. On to `CCOc1ccc(Cc2cc([C@@H]3O[C@H](SCCNC(C)=O)[C@@H](O)[C@H](O)[C@H]3O)ccc2Cl)cc1` [N-(2-{(2R,3S,4R,5R,6S)-6-[4-Chloro-3-(4-ethoxy-benzyl)-phenyl]-3,4,5-trihydroxy-tetrahydro-pyran-2-ylsulfanyl}-ethyl)-acetamide], for which the IC50 is less than 500 nM.

On to `CCOc1ccc(C(=O)c2cc([C@@H]3O[C@H](OC)[C@@H](O)[C@H](O)[C@H]3O)ccc2Cl)cc1` [[2-Chloro-5-((2S,3R,4R,5S,6S)-3,4,5-trihydroxy-6-methoxy-tetrahydro-pyran-2-yl)-phenyl]-(4-ethoxy-phenyl)-methanone], for which the IC50 was less than 500 nM. The result for `CCOc1ccc(Cc2cc([C@@H]3OC(OCC(=O)OC)[C@@H](O)[C@H](O)[C@H]3O)ccc2Cl)cc1` (stereo partly drawn) [{(3S,4R,5R,6S)-6-[4-Chloro-3-(4-ethoxy-benzyl)-phenyl]-3,4,5-trihydroxy-tetrahydro-pyran-2-yloxy}-acetic acid methyl ester] reads less than 500 nM.
